# Laboratory results from a melting point compilation (Tetko et al.).
row,SMILES,melting point
1,COC(=O)c1ccc(C(=O)O)cn1,210 to 212 °C
2,Cc1cc(O)c(C(=O)O)cc1S(=O)(=O)Cl,162 to 164 °C
3,CCn1c(S)nc2cc(S(=O)(=O)N3CCOCC3)ccc21,227 to 229 °C
4,CC(C)C(O)Cc1ccccc1Br (configuration not stated),73 to 75 °C
5,NS(=O)(=O)c1cc(C(=O)O)cs1,194 to 196 °C
6,NC(=O)c1ccc(NCc2ccccc2)c(N)c1,169 to 171 °C
7,CNC(=O)NC(=O)CCl,155 to 157 °C
8,CC(C)(C)OC(=O)NC(C(N)=NO)C1CC1 (configuration not stated),147 to 149 °C
9,CC1(C)NC(=O)N(CCOc2ccc(N)cc2)C1=O,147 to 149 °C
10,Cn1cc(C=O)c(-c2ccc(C#N)cc2)n1,156 to 158 °C
11,Cc1cccc(C(=O)NO)c1O,139 to 141 °C
12,N#Cc1ccc(N2CCCC(Br)C2=O)cc1 (configuration not stated),124 to 126 °C
13,NC(=O)NC(CC(=O)O)c1cccc(Br)c1 (configuration not stated),159 to 161 °C
14,O=C(O)CNC(=O)c1ccc(Br)cc1,160 to 162 °C
15,COc1ccc2c(c1)CCCC(=O)N2,142 to 144 °C
16,CC1C=C(C(=O)O)CC1 (configuration not stated),33 to 35 °C
17,Cc1csc(=O)n1CCC(=O)O,108 to 110 °C
18,OC(O)c1nc(-c2ccccc2)no1,103 to 105 °C
19,O=C(O)c1ccc(-n2ccnn2)cc1,279 to 281 °C
20,CCOc1ccc(C(C)=O)cc1OCC,49 to 51 °C
21,O=C(O)C1CC(=O)N(c2ccccc2F)C1 (configuration not stated),130 to 135 °C
22,O=C(Nc1ccc(C(F)(F)F)cc1)OCC(F)(F)F,102 to 104 °C
23,O=C(O)c1ccccc1Oc1cccnc1,134 to 136 °C
24,Cn1ccc(NC(=O)CC#N)n1,159 to 161 °C

row,SMILES,melting point
1,CCOC(=O)Cc1cc(=O)oc2ccc(O)cc12,173 to 175 °C
2,O=C(NCCO)c1ccc(O)cc1O,163 to 165 °C
3,Cc1cc2c(cc1Br)NC(=O)C(C)O2 (configuration not stated),208 to 210 °C
4,CCCOc1ccc(C(=O)O)cc1N,122 to 124 °C
5,O=C1OCC(c2ccc(Cl)cc2)=C1c1cccs1,65 to 67 °C
6,CC(=O)c1ccc(-c2ccc(C=O)o2)cc1,133 to 135 °C
7,COC(=O)c1ccc(S(=O)(=O)Cl)cn1,119 to 121 °C
8,O=C(O)c1ccc(-c2ccc(Cl)cc2)cc1F,251 to 253 °C
9,CCOC(=O)c1c[nH]c2cc(OC)cc(OC)c2c1=O,257 to 259 °C
10,Cc1ccc(C(=O)O)cc1S(=O)(=O)Nc1cc(Cl)ccc1F,181 to 183 °C
11,Cn1nc(CCl)[nH]c1=O,139 to 141 °C
12,N#Cc1cccc(-c2nnc(N)o2)c1,253 to 255 °C
13,Nc1cccc(-c2cn[nH]c2)c1,189 to 191 °C
14,O=C(O)/C=C/c1ccc(Br)s1,209 to 211 °C
15,O=C(O)C1CC1c1cc(Cl)cc(Cl)c1 (configuration not stated),134 to 136 °C
16,Brc1ccc2[nH]c3c(c2c1)CNCC3,216 to 218 °C
17,Cn1c(S)nnc1C(F)F,171 to 173 °C
18,N#CCC(=O)c1ccc(F)c(C(F)(F)F)c1,51 to 53 °C
19,O=S(=O)(Cl)Cc1cc(Cl)ccc1F,45 to 47 °C
20,CCCc1nn(-c2ccccc2F)c(Cl)c1C(=O)O,169 to 171 °C
21,CNC(=O)c1cccc(CCN)c1,110 to 112 °C
22,O=S(=O)(Cl)C1=Cc2ccccc2CC1,59 to 61 °C
23,Cn1cc(C(=O)O)c(Cl)n1,209 to 211 °C
24,COC(=O)c1cc(O)ccc1[N+](=O)[O-],101 to 103 °C

row,SMILES,melting point
1,CCNC(=O)CCCl,64 to 66 °C
2,NNC(=O)NCCc1cccs1,90 to 92 °C
3,CC(=O)Nc1cccc(N=C=S)c1,154 to 156 °C
4,O=C1N(Cc2ccccc2)CCN1S(=O)(=O)Cl,112 to 114 °C
5,O=C(NC1CCNCC1)c1ccc(F)cc1,175 to 177 °C
6,O=C(O)C1(c2ccc(F)cc2)CC1,126 to 128 °C
7,O=C(CCl)Nc1c(Cl)cccc1Cl,178 to 180 °C
8,ClC(c1ccccc1)c1nc(-c2ccccc2)no1 (configuration not stated),74 to 76 °C
9,c1ccc(CN(Cc2ccccc2)Cn2nnc3ccccc32)cc1,118 to 120 °C
10,CC(C)(C)c1ccc(C(C)(C)C(=O)O)cc1,165 to 167 °C
11,C=CCn1c(=O)c2ccccc2n2c(S)nnc12,177 to 179 °C
12,CS(=O)(=O)N1CCN(c2ccc(N)cn2)CC1,178 to 180 °C
13,COCCn1c(C)cc(C=O)c1C,44 to 46 °C
14,NCc1nnc2n1CCC2,20 to 22 °C
15,COc1cc(C=O)ccc1OC(=O)c1ccc(F)cc1,100 to 102 °C
16,Cc1ccc(CNC(=O)C2CCNCC2)cc1,157 to 159 °C
17,Cc1cccc(-c2nnc(C(C)Cl)o2)c1 (configuration not stated),< 17 °C
18,CC(=O)N1CCN(CCC(=O)O)CC1,114 to 116 °C
19,Cc1cccn2cc(COc3ccccc3C(=O)O)nc12,199 to 201 °C
20,O=C(O)C(=Cc1cccnc1)NC(=O)c1ccccc1,189 to 191 °C
21,CCN(CC)S(=O)(=O)c1cc(C(=O)O)n(C)c1,174 to 176 °C
22,Cc1cc(Cl)c2cccc([N+](=O)[O-])c2n1,109 to 111 °C
23,O=C1CCNc2ccc(F)cc21,49 to 51 °C
24,CC(=O)c1ccc(C#N)c(F)c1,62 to 64 °C
